These are literature values, as cited in patent US20180318246A1 (SUN PHARMACEUTICAL INDUSTRIES LIMITED, priority 2015, published 2018).

Structures can show the parent of a compound that is named as a salt.

In the case of `COC(=O)/C=C/C(=O)OC` [dimethyl fumarate], the “Permeability coefficient compared with monomethyl fumarate” value was “significantly higher”.
